These results are taken from patent US4788206A, “Pentadieneamides” (Hoffmann-La Roche Inc., priority 1987, dated 1988).

Experiment [1] deals with PAF-Induced Bronchoconstriction. Kind of experiment: PAF Induced Bronchoconstriction Assay. The settings on record: for Percent Inhib. of PAF-Induced Bronchoconstriction, mg/Kg i.v.: i.v. (dose not given), 1 minute pretreatment, PAF 1.0 μg/kg i.v.; for inhibition in vivo at 50 mg/kg: Cavia porcellus, po, 2-hour pretreatment, read-out: Percent Inhib. of PAF-Induced Bronchoconstriction, 50 mg/Kg p.o.; for inhibition in vivo at 50 mg/kg / Percent Inhib. of PAF-Induced Bronchoconstriction, 50 mg/Kg p.o. (8 hr): 50 mg/Kg p.o. It counts as in vivo, guinea pig. The method, then: PAF Induced Bronchoconstriction Assay
Male animals (Hartlet Strain 400-500 g) were anesthetized with urethane (2 g/kg. i.p.). Each animals' trachea was cannulated and the guinea pigs were repirated using a Harvard small animal rodent respirator (3.0 cc stroke volume, 40 breaths per min.). Tracheal pressure was recorded from a cannula inserted in the trachea and connected to a Statham Pressure Transducer.
The jugular vein was cannulated for administering compounds. Spontaneous breathing was arrested with succinylcholine (1.2 mg/kg. i.v.) administered 2 minutes prior to intravenous injection of platelet activating factor (PAF).
For, the intravenous testing, the guinea pig is given a 5-minute pretreatment with propranolol at a dose of 0.1 mg/kg intravenously. The test compound is administered with a 1 minute pretreatment prior to intravenous challenge with PAF. The animal is than challenged with a 1.0 μg/kg intravenous dose of PAF and the change is tracheal pressure is measured.
For the oral testing, the procedure includes a 2-hour pretreatment period with the test compound administered through an oral gavage tube. Propranolol or succinylcholine and PAF are administered intravenously, and the change in tracheal pressure measured.
The change is tracheal pressure is determined by subtracting the steady state baseline achieved after administration of succinylcholine from the peak bronchoconstriction seen after challenge with PAF. The mean is calculated for each test compound and compared to the mean of the control animals to give the percent inhibition of bronchoconstriction. The standard error is calcuated as the standard error of the mean.

The target in experiment [2] is T1, PAF Binding, dog platelets (Canis lupus familiaris, UniProt A0A8I3NSH0).
T1 construct: Washed platelets were prepared by resuspending the platelet pellet once with PBS containing 1 mM EDTA; from tissue; host or cells: washed platelets from dog blood
T1 sequence (A0A8I3NSH0 1-343): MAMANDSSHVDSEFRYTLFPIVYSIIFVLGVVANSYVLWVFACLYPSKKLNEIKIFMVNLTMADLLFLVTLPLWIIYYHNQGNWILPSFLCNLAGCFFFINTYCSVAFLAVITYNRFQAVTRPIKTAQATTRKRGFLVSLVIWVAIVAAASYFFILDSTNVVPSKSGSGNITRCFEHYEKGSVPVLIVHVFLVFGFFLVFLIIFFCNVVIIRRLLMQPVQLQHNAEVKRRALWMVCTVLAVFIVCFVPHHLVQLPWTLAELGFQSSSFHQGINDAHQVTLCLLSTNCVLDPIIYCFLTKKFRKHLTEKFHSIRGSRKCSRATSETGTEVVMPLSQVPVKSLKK
In words: PAF Binding Assay (inhibition of 3H-PAF binding to washed dog platelets). The settings on record: dog platelets, 3H-PAF, 10 minutes at room temperature; read-out: Inhib of PAF Binding IC50. As for the experimental part: The binding assay was done in 400 μl polyethylene microcentrifuge tubes (Beckman) containing 50 μl of an oil mixture of 2 parts Siliconol AR200 (Serva): 1 part Silicone Fluid (Arthur H. Thomas). Buffer, standards, or analogs (150 μl total volume) were added to the tubes. Radiolabelled ^3 H-PAF (50 μl) was then added to the tubes. The reaction was started by the addition of 50 μl of dog platelets (2×10^7 platelets). The tubes were capped, inverted several times to mix, and incubated for 10 minutes at room temperature. The platelets were separated from the incubation mixture by centrifuging 1 minute in a Beckman Microfuge B centrifuge. The tip of the microfuge tube was cut off, and the platelets were washed out of the tip with 200 μl of 50% methanol (Burdick and Jackson). Aquasol (NEN, 10 ml) was added and the radioactivity in the samples was determined using an LS 8100 Beckman liquid scintillation counter linked to a Techtran tape recorder. Data was processed through an in-house computer system. Alternatively, radioactivity was determined using a Searle Mark III liquid scintillation counter linked to a Iso-Data microprocessor.
(b) Preparation of Platelets
Blood was collected from anesthesized or unanesthesized dogs into 50 ml plastic centrifuge tubes containing 3.8% sodium citrate as the anticoagulant (1 volume of citrate/9 volumes of blood). The red cells were removed by centrifugation for 15 minutes at 600 rpm (100-125 g) at room temperature. An aliquot of the supernatant platelet rich plasma (PRP) was saved for cell counting and the remainder was acidified to PH 6.5 with 0.15M citric acid. The platelet pellet was obtained after a 10 minute centrifugation at 2000 rpm (1000 g) at room temperature. Washed platelets were prepared by resuspending the platelet pellet once with PBS containing 1 mM EDTA, centrifuging as noted, and then resuspending the platelets in 0.1% BSA-PBS. An aliquot of the washed platelets was counted. Platelets used for binding assays were diluted to 2×10^7 platelets/assay tube (4×10^8 platelets/ml). Platelet counting was done using a Royco Cell-Crit 921.

The IC50 is the concentration that gives 50% inhibition.

Molecules are shown by their SMILES. Where only a bound is given, the exact number is not on record here.

As for `COc1ccc(C(=C/C=C/C(=O)NCCOCc2cccnc2)c2ccc(OC)cc2)cc1`, the “Percent Inhib. of PAF-Induced Bronchoconstriction, mg/Kg i.v.” value in experiment [1] is 48 ± 7%. The IC50 in experiment [2] was determined as 25 nM.
Take `CC(CCCc1cccnc1)NC(=O)/C=C/C=C(c1ccccc1)c1ccccc1` (racemic) [[R,S-(E)]-5,5-Diphenyl-N-[1-methyl-4-(3-pyridinyl)butyl]-2,4-pentadienamide]: the IC50 in experiment [2] was 100 nM.
Regarding `COc1ccc(C(=C/C=C/C(=O)NC(CCCc2cccnc2)C(C)C)c2ccc(OC)cc2)cc1` (racemic) [[R,S-(E)]-5,5-bis(4-methoxyphenyl)-N-[1-(1-methylethyl)-4-(3-pyridinyl)butyl]-2,4-pentadienamide], in experiment [1], the inhibition in vivo at 50 mg/kg was determined as 57 ± 19% and the “Percent Inhib. of PAF-Induced Bronchoconstriction, mg/Kg i.v.” value worked out at 87 ± 7%.
Turning to `COc1ccc(C(=C/C=C/C(=O)NC(C)CCCc2cccnc2C)c2ccc(OC)cc2)cc1` (racemic) [[R,S-(E)]-5,5-bis(4-methoxyphenyl)-N-[1-methyl-4-(2-methyl-3-pyridinyl)butyl]-2,4-pentadienamide], the “Percent Inhib. of PAF-Induced Bronchoconstriction, mg/Kg i.v.” value in experiment [1] was found to be 47 ± 10%. For the same molecule, in experiment [2], the IC50 came out at 30 nM.
In the case of `COc1ccc(C(=C/C=C/C(=O)NC(C)CCCc2ccc(C)nc2)c2ccc(OC)cc2)cc1` (racemic) [[R,S-(E)]-5,5-bis(4-methoxyphenyl)-N-[1-methyl-4-(6-methyl-3-pyridinyl)butyl]-2,4-pentadienamide], the IC50 in experiment [2] worked out at 700 nM.
As for `CCc1ccc(CCCC(C)NC(=O)/C=C/C=C(c2ccc(OC)cc2)c2ccc(OC)cc2)cn1` (racemic) [[R,S-(E)]-5,5-bis-(4-methoxyphenyl)-N-[1-methyl-4-(6-ethyl-3-pyridinyl)butyl]-2,4-pentadienamide], in experiment [2], the 50% inhibitory concentration (IC50) came to 900 nM.
Turning to `COc1cccc(C(=C/C=C/C(=O)NC(C)CCCc2cccnc2)c2cccc(OC)c2)c1` (racemic) [[R.S-(E)]-5,5-bis(3-methoxyphenyl)-N-[1-methyl-4-(3-pyridinyl)butyl]-2,4-pentadienamide], the concentration for half-maximal inhibition (IC50) in experiment [2] amounted to 20 nM.
As to `C/C(=C\C=C(c1ccccc1)c1ccccc1)C(=O)NCCCCc1cccnc1` [(E)-5,5-Diphenyl-2-methyl-N-[4-(3-pyridinyl)butyl]-2,4-pentadienamide], the IC50 in experiment [2] was 100 nM.
For the molecule `CC(C)(CCCc1cccnc1)NC(=O)/C=C/C=C(c1cccc(F)c1)c1cccc(F)c1` [(E)-5,5-bis(3-Fluorophenyl)-N-[1,1-dimethyl-4-(3-pyridinyl)butyl]-2,4-pentadienamide], in experiment [1], the inhibition in vivo at 50 mg/kg was 11 ± 10%.
The same measure, in the same setting: next, `COc1cccc(C(=C/C=C/C(=O)NC(C)(C)CCCc2cccnc2)c2cccc(OC)c2)c1` [(E)-5,5-bis(3-Methoxyphenyl)-N-[1,1-dimethyl-4-(3-pyridinyl)butyl]-2,4-pentadienamide]: 22 ± 10%.
As to `COc1cccc(C(=C/C=C/C(=O)NCCCCCCc2cccnc2)c2cccc(OC)c2)c1` [(E)-5,5-bis(3-Methoxyphenyl)-N-[6-(3-pyridinyl)hexyl]-2,4-pentadienamide], the concentration for half-maximal inhibition (IC50) in experiment [2] is 450 nM.
As to `CC(C)(CCCc1cccnc1)NC(=O)/C=C/C=C(c1ccc(F)cc1)c1ccc(F)cc1` [(E)-5,5-bis(4-Fluorophenyl)-N-[1,1-dimethyl-4-(3-pyridinyl)butyl]-2,4-pentadienamide], the inhibition in vivo at 50 mg/kg in experiment [1] worked out at 20 ± 14%.
Still for that read-out and setting: next, `COc1ccc(C(=C/C=C/C(=O)NC(C)(C)CCCc2cccnc2)c2ccc(OC)cc2)cc1` [(E)-5,5-bis(4-Methoxyphenyl)-N-1,1-dimethyl-4-(3-pyridinyl)butyl]-2,4-pentadienamide]: 54 ± 9%.
For the molecule `COc1ccc(C(=C/C=C/C(=O)NCCCOc2cccnc2)c2ccc(OC)cc2)cc1` [(E)-5,5-bis(4-methoxyphenyl)-N-[3-[(3-pyridinyl)oxy]propyl]-2,4-pentadienamide], the concentration for half-maximal inhibition (IC50) in experiment [2] worked out at 300 nM.
For `Cc1ccc(C(=C/C=C/C(=O)NCCCCc2cccnc2)c2ccc(C)cc2)cc1` [(E)-5,5-bis(4-methylphenyl)-N-[4-(3-pyridinyl)butyl]-2,4-pentadienamide], in experiment [1], the “Percent Inhib. of PAF-Induced Bronchoconstriction, 50 mg/Kg p.o. (8 hr)” value is recorded as 11 ± 6%; the inhibition in vivo at 50 mg/kg worked out at 67 ± 15%; the “Percent Inhib. of PAF-Induced Bronchoconstriction, mg/Kg i.v.” value is given as 95 ± 1%.
As to `COc1ccc(C(=C/C=C/C(=O)Nc2cccc3cnccc23)c2ccc(OC)cc2)cc1` [(E)-N-(5-isoquinolinyl)-5,5-bis(4-methoxyphenyl)-2,4-pentadienamide], in experiment [2], the concentration for half-maximal inhibition (IC50) stood at 600 nM.
The same measure, in the same setting: next, `COc1ccc(C(=C/C=C/C(=O)NCCCc2cccc3ccncc23)c2ccc(OC)cc2)cc1` [(E)-N-[3-(8-isoquinolinyl)propyl]-5,5-bis(4-methoxyphenyl)-2,4-pentadienamide]: greater than 1000 nM; `COc1ccc(C(=C/C=C/C(=O)NCCCCc2cncc3ccccc23)c2ccc(OC)cc2)cc1` [(E)-N-[4-(4-isoquinolinyl)butyl]-5,5-bis(4-methoxyphenyl)-2,4-pentadienamide]: greater than 1000 nM; `O=C(/C=C\C=C(c1ccccc1)c1ccccc1)NCCCCc1cccnc1` [(Z)-5,5-diphenyl-N-[4-(3-pyridinyl)butyl]-2,4-pentadienamide]: 400 nM.
Take `CCCCC/C(=C/C=C/C(=O)N[C@H](C)CCCc1cccnc1)c1ccc(OC)cc1` [[R-(2E,4Z)]-5-(4-methoxyphenyl)-N-[1-methyl-4-(3-pyridinyl)butyl]-2,4-decadienamide]: the “Percent Inhib. of PAF-Induced Bronchoconstriction, mg/Kg i.v.” value in experiment [1] worked out at 57 ± 12%.
For the molecule `COc1ccc(/C(=C\C=C\C(=O)N[C@H](C)CCCc2cccnc2)c2ccccc2)cc1` [[R-(2E,4Z)]-5-(4-methoxyphenyl)-N-[1-methyl-4-(3-pyridinyl)butyl]-5-phenyl-2,4-pentadienamide], in experiment [1], the inhibition in vivo at 50 mg/kg came to 0% and the “Percent Inhib. of PAF-Induced Bronchoconstriction, mg/Kg i.v.” value turned out to be 74 ± 11%.
Consider `COc1ccc(/C(=C\C=C\C(=O)N[C@H](C)CCCc2cccnc2)C2CCCCC2)cc1` [[R-(2E,4Z)]-5-cyclohexyl-5-(4-methoxyphenyl)-N-[1-methyl-4-(3-pyridinyl)butyl]-2,4-pentadienamide], for which the “Percent Inhib. of PAF-Induced Bronchoconstriction, mg/Kg i.v.” value in experiment [1] was 18 ± 12%.
Consider `CCCCC/C(=C\C=C\C(=O)N[C@H](C)CCCc1cccnc1)c1ccc(OC)cc1` [[R-(E,E)]5-(4-methoxyphenyl)-N-[1-methyl-4-(3-pyridinyl)butyl]-2,4-decadienamide], for which, in experiment [1], the “Percent Inhib. of PAF-Induced Bronchoconstriction, 50 mg/Kg p.o. (8 hr)” value is recorded as 71 ± 14%; the inhibition in vivo at 50 mg/kg came to 100 ± 0.5%; the “Percent Inhib. of PAF-Induced Bronchoconstriction, mg/Kg i.v.” value was determined as 99 ± 1%.
Turning to `COc1ccc(/C(=C/C=C/C(=O)N[C@H](C)CCCc2cccnc2)c2ccccc2)cc1` [[R-(E,E)]-5-(4-methoxyphenyl)-N-[1-methyl-4-(3-pyridinyl)butyl]-5-phenyl-2,4-pentadienamide], in experiment [1], the inhibition in vivo at 50 mg/kg was found to be 95 ± 1% and the “Percent Inhib. of PAF-Induced Bronchoconstriction, mg/Kg i.v.” value came to 89 ± 4%.
For the molecule `C[C@@H](CCCc1cccnc1)NC(=O)/C=C/C=C(c1ccc(F)cc1)c1ccc(F)cc1` [[S-(E)]-5,5-bis(4-fluorophenyl)-N-[1-methyl-4-(3-pyridinyl)butyl]-2,4-pentadienamide], the inhibition in vivo at 50 mg/kg in experiment [1] came to 44 ± 10%.
